Where a name gives a salt, the structure may show the parent alone.
Key:
[1] = system: Serratia marcescens IAM 1184; test: MIC against standard strains (Test Example 1); type: cell-based; details: IAM1184, Muller-Hinton agar, 37°C overnight
Protocol: (§1) By using each test strain cultured overnight at 37°C in a Muller-Hinton broth, there was prepared a bacterial solution with a bacterial cell population of 1 x 10^6 CFU/mi of the same bouillon. The bacterial solution was inoculated into the Muller-Hinton agar media each containing respectively one test agent and, after overnight incubation at 37°C, the minimum concentration that inhibited growth of the bacteria was determined and shown as MIC also in Table 1.
(§2) Staphylococcus aureus 167 and Staphylococcus aureus 195 used in the test were MRSA. CTM (cefotiam) and FMOX (flomoxef) were used as control agents.

[2] = system: Psuedomonas aeruginosa IFO 3445; test: MIC against standard strains (Test Example 1); type: cell-based; details: Muller-Hinton agar, 37°C overnight
Protocol: as §1, §2

[3] = system: Staphylococcus epidermidis IAM 1296; test: MIC against standard strains (Test Example 1); type: cell-based; details: IAM1296, Muller-Hinton agar, 37°C overnight
Protocol: as §1, §2

[4] = system: Enterobacter cloacae ATCC 13407; test: MIC against standard strains (Test Example 1); type: cell-based; details: ATCC13407, Muller-Hinton agar, 37°C overnight
Protocol: as §1, §2

[5] = system: Klebsiella pneumoniae IFO 3317; test: MIC against standard strains (Test Example 1); type: cell-based; details: IFO3317, Muller-Hinton agar, 37°C overnight
Protocol: as §1, §2

[6] = system: Morganella morganii IFO 3848; test: MIC against standard strains (Test Example 1); type: cell-based; details: IFO3848, Muller-Hinton agar, 37°C overnight
Protocol: as §1, §2

[7] = system: Proteus mirabilis IFO 3849; test: MIC against standard strains (Test Example 1); type: cell-based; details: IFO3849, Muller-Hinton agar, 37°C overnight
Protocol: as §1, §2

[8] = system: Citrobacter freundii ATCC 8090; test: MIC against standard strains (Test Example 1); type: cell-based; details: ATCC8090, Muller-Hinton agar, 37°C overnight
Protocol: as §1, §2

[9] = system: Bacillus subtilis ATCC 6633; test: MIC against standard strains (Test Example 1); type: cell-based; details: ATCC6633, Muller-Hinton agar, 37°C overnight
Protocol: as §1, §2

[10] = system: Staphylococcus aureus 209P JC-1; test: MIC against standard strains (Test Example 1); type: cell-based; details: Muller-Hinton agar, 37°C overnight
Protocol: as §1, §2

[11] = system: Klebsiella pneumoniae No. 42; test: MIC against standard strains (Test Example 1); type: cell-based; details: Muller-Hinton agar, 37°C overnight
Protocol: as §1, §2

[12] = system: Staphylococcus aureus Smith; test: MIC against standard strains (Test Example 1); type: cell-based; details: Muller-Hinton agar, 37°C overnight
Protocol: as §1, §2

[13] = system: Staphylococcus aureus 167; test: MIC against standard strains (Test Example 1); type: cell-based; details: Staphylococcus aureus 167 (MRSA); Muller-Hinton agar, 37°C overnight
Protocol: as §1, §2

[14] = system: Micrococcus luteus ATCC 9341; test: MIC against standard strains (Test Example 1); type: cell-based; details: ATCC9341, Muller-Hinton agar, 37°C overnight
Protocol: as §1, §2

[15] = system: Staphylococcus aureus 195; test: MIC against standard strains (Test Example 1); type: cell-based; details: Staphylococcus aureus 195 (MRSA); Muller-Hinton agar, 37°C overnight
Protocol: as §1, §2

[16] = system: Escherichia coli NIHJ JC-2; test: MIC against standard strains (Test Example 1); type: cell-based; details: NIHJJC2, Muller-Hinton agar, 37°C overnight
Protocol: as §1, §2

[17] = system: Pseudomonas aeruginosa NCTC 10490; test: MIC against standard strains (Test Example 1); type: cell-based; details: NCTC10490, Muller-Hinton agar, 37°C overnight
Protocol: as §1, §2

[18] = system: Escherichia coli CSH2 (RE45); test: MIC against standard strains (Test Example 1); type: cell-based
Protocol: as §1, §2

[19] = system: Escherichia coli CSH2 (RK1); test: MIC against standard strains (Test Example 1); type: cell-based
Protocol: as §1, §2

Proteus vulgalis OX-19 = test: MIC against standard strains (Test Example 1); type: cell-based; details: Muller-Hinton agar, 37°C overnight
Protocol: as §1, §2

clinically isolated MRSA = test: Antibacterial potency against clinically isolated MRSA (Test Example 2); type: cell-based, methicillin-resistant Staphylococcus aureus; details: Staphylococcus aureus, 52 strains of clinically isolated MRSA; for MIC50: concentration inhibiting growth of 50% of the strains (Test Example 2); for MIC90: concentration inhibiting growth of 90% of the strains (Test Example 2)
Protocol: A test on the antibacterial potency against clinically isolated MRSA was conducted in the following way.
52 strains of clinically isolated MRSA were used, and MIC was determined for each of the strains according to the standard method of the Japan Chemotherapical Society as in Test Example 1. The minimum growth inhibitory concentration which inhibited growth of 50% of the strains tested was expressed as MIC50 (µg/ml), and the minimum growth inhibitory concentration which inhibited growth of 90% of the strains was expressed as MIC90 (µg/ml).
In this test, FMOX (flomoxef), IPM/CS (imipenem/cilastatin), CMZ (cefmetazole), MINO (minocycline) and DMPPC (methicillin) were used as control agents.

Structure (SMILES) | MIC [1] [µg/mL] | MIC [2] [µg/mL] | MIC [3] [µg/mL] | MIC [4] [µg/mL] | MIC [5] [µg/mL] | MIC [6] [µg/mL] | MIC [7] [µg/mL] | MIC [8] [µg/mL] | MIC [9] [µg/mL] | MIC [10] [µg/mL] | MIC [11] [µg/mL] | MIC [12] [µg/mL] | MIC [13] [µg/mL] | MIC [14] [µg/mL] | MIC [15] [µg/mL] | MIC [16] [µg/mL] | MIC [17] [µg/mL] | MIC [18] [µg/mL] | MIC [19] [µg/mL] | MIC (Proteus vulgalis OX-19) [µg/mL] | other results
NC(=O)Nc1ccc[n+](CC2=C(C(=O)[O-])N3C(=O)[C@@H](NC(=O)/C(=N\O)c4csc(N)n4)[C@H]3SC2)c1 [Compound (4), 7β-[2-(2-aminothiazol-4-yl)-2-syn-hydroxyiminoacetamido]-3-[(3-ureido-1-pyridinio)methyl]-3-cephem-4-carboxylic acid chloride] | 0.1 | 12.5 | 0.05 | 0.39 | 0.1 | 0.05 | 0.1 | 0.1 | 0.2 | 0.1 | 0.39 | 0.2 | 12.5 | 0.39 | 3.13 | 0.1 | 1.56 | 0.39 | 0.78 | 0.78 | MIC50 (clinically isolated MRSA): 2.17 µg/mL; MIC90 (clinically isolated MRSA): 6.16 µg/mL
CC(=O)c1ccc[n+](CC2=C(C(=O)[O-])N3C(=O)[C@@H](NC(=O)/C(=N\O)c4csc(N)n4)[C@H]3SC2)c1 [Compound (2), 7β-[2-(2-aminothiazol-4-yl)-2-syn-hydroxyiminoacetamido]-3-[(3-acetyl-1-pyridinio)methyl]-3-cephem-4-carboxylic acid chloride] | 0.39 | 25 | 0.2 | 1.56 | 0.39 | 0.2 | 0.39 | 0.39 | 0.78 | 0.2 | 0.78 | 0.39 | 12.5 | 0.1 | 6.25 | 0.39 | 3.13 | 0.78 | 0.78 | 0.39 | MIC50 (clinically isolated MRSA): 3.77 µg/mL; MIC90 (clinically isolated MRSA): 9.47 µg/mL
Nc1nc(/C(=N/O)C(=O)N[C@@H]2C(=O)N3C(C(=O)[O-])=C(C[n+]4ccc(-c5csc(N)n5)cc4)CS[C@H]23)cs1 [Compound (5), 7β-[2-(2-aminothiazol-4-yl)-2-syn-hydroxyiminoacetamido]-3-[[4-(2-aminothiazol-4-yl)-1-pyridi-i-nio]methyl]-3-cephem-4-carboxylic acid chloride] | 0.2 | 25 | 0.1 | 0.78 | 0.05 | 0.05 | 0.1 | 0.2 | 0.2 | 0.2 | 0.1 | 0.2 | 6.25 | 0.025 | 3.13 | 0.2 | 1.56 | 0.05 | 0.2 | 0.2 | MIC50 (clinically isolated MRSA): 3.13 µg/mL; MIC90 (clinically isolated MRSA): 8.69 µg/mL
NC(=O)c1ccc[n+](CC2=C(C(=O)[O-])N3C(=O)[C@@H](NC(=O)/C(=N\O)c4csc(N)n4)[C@H]3SC2)c1 [Compound (1), 7β-[2-(2-aminothiazol-4-yl)-2-syn-hydroxyiminoacetamido]-3-[(3-carbamoyl-1-pyridinio)methyl]-3-cephem-4-carboxylic acid chloride] | 0.2 | 25 | 0.1 | 0.78 | 0.2 | 0.39 | 0.39 | 0.39 | 0.39 | 0.2 | 0.78 | 0.39 | 6.25 | 0.05 | 3.13 | 0.39 | 3.13 | 0.39 | 0.78 | 0.78 | MIC50 (clinically isolated MRSA): 3.79 µg/mL; MIC90 (clinically isolated MRSA): 11.4 µg/mL
Nc1ccc[n+](CC2=C(C(=O)[O-])N3C(=O)[C@@H](NC(=O)/C(=N\O)c4csc(N)n4)[C@H]3SC2)c1 [Compound (3), 7β-[2-(2-aminothiazol-4-yl)-2-syn-hydroxyiminoacetamido]-3-[(3-amino-1-pyridinio)methyl]-3-cephem-4-carboxylate hydrochloride] | 0.1 | 6.25 | 0.1 | 3.13 | 0.1 | 0.05 | 0.2 | 0.2 | 0.2 | 0.2 | 0.2 | 0.39 | 12.5 | 0.05 | 3.13 | 0.2 | 3.13 | 0.2 | 0.39 | 0.39 | MIC50 (clinically isolated MRSA): 3.94 µg/mL; MIC90 (clinically isolated MRSA): 9.21 µg/mL
